In patent publication US20230201113A1, “IMMUNE BOOSTER - SUPPLEMENT TREATMENT KIT AND METHODS OF USE” (priority 2020, published 2023):

Test system: SARS-CoV-2
Assay type: in vivo
Details: of the 50 subjects in the control group

hydroxychloroquine [Placebo + hydroxychloroquine]
subjects resolved from positive to negative through PCR testing after ten days: 9 subjects
